Experiment [1] concerns the target T1, LOXL3 (Homo sapiens, UniProt P58215).
T1 sequence (P58215 26-753): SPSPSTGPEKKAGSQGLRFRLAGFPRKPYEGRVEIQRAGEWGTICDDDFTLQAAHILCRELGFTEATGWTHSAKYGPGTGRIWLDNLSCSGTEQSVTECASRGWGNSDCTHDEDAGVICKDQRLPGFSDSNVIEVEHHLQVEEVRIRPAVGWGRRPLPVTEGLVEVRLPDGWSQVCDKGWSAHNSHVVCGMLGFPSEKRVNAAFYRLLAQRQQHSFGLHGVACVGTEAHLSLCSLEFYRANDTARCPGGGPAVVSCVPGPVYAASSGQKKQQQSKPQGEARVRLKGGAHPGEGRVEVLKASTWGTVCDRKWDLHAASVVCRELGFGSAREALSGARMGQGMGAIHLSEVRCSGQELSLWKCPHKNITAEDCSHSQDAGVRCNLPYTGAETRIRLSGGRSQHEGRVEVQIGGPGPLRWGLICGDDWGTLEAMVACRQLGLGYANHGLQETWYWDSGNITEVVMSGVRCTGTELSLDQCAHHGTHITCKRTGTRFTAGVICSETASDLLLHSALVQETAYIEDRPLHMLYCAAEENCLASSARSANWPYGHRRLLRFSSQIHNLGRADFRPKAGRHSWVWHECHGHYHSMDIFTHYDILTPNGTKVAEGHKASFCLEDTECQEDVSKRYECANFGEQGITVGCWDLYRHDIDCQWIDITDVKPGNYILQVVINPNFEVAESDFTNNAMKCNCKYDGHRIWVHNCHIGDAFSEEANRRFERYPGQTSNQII
Briefly: Oxidation assay of peptides by LOXL3. The experiment is classed as biochemical. The note with it: for oxidation of the peptide by LOXL3: oxidation assay.

For experiment [2], the target named is T1, LOXL3. Briefly: Spreading and adhesion of Pax-GFP cells on LOXL3-treated FN with or without βAPN. More on the design: purchased R&D systems 6069-AO. The experiment is classed as cell-based. As for the experimental part: Spreading and soft gel experiments: Ibidi 8-wellplates (Ibidi, 190814/1) were coated with human plasma FN (hFN, Sigma-Aldrich, FC010-10MG, 10 μg/ml) for 1 hour at 37° C. Afterwards, the samples were treated with human recombinant LOXL3 (RhLOXL3, R&D systems, 6069-AO) or LOXL2 (RhLOXL2, R&D systems, 2639-AO) for 5 hours (or sodium borate buffer 50 mM as control), with or without 200 mM βAPN (Sigma, A3134-25G) and then washed. Then, cells were seeded on the FN matrix and fixed at varying time points after spreading, followed by immunostaining. For soft gel experiments, Ibidi 8-well plates were covered with silicone gels (DOWSIL, CY 52-276 A&B), prepared at different rigidities that were previously calibrated and described (42) previous to FN coating. Images were acquired using an LSM800 confocal microscope (Zeiss) with Airyscan function and 20× or 63× objectives. […]
Nascent adhesion formation, even on very stiff matrices, requires at least four RGD (Arg-Gly-Asp) ligands that are localized within ˜60 nm from each other (35, 36). […] Towards that end, following enzymatic treatment, FN was coated on glass coverslips and Pax-GFP cells were added and shortly after (15 or 30 minutes) fixed and analyzed.

In the next experiment the test system is lung fibroblasts. Nature of the experiment: Lung fibroblast proliferation (culture confluency) with peptides. Format: cell-based. The note with it: following 72 hours in culture. From the text: Note the lack of effect in the first day of culturing (G).
In the next experiment the test system is HDF cells. Nature of the experiment: HDF cell area after exposure to peptides. The experiment is classed as cell-based, human. Conditions: HDF on glass without external FN coating, fixed after 1 week; compared with control peptides or untreated sample. As to the method:
(§1) Adhesion, cell area andfibronectin analysis: All of the adhesion and fibronectin fibrils analyses shown in this paper were performed using the trainable Weka segmentation plugin (41) of ImageJ (NIH) software.
Representative images (FIGS. 9A-E) of HDF cell contour following exposure to the different peptides (9B—SEQ ID NO: 21, 9C—SEQ ID NO: 22; 9D—SEQ ID NO: 19; 9E—SEQ ID NO: 20), seeded on glass without external FN coating and fixed after 1 week (A-E, scale=100 μm) illustrate that inhibitor peptides reduce cell size.

Experiment [3] has as its system human dermal fibroblast (HDF) cells. Briefly: Fibronectin fibrillogenesis (FN immunostaining) under HDF cells exposed to peptides. Format: cell-based. The note with it: HDF on glass without external FN coating, fixed after 1 week; compared with control peptides (FN1-3, FN1-9) or untreated sample. As for the experimental part: as §1
Immunofluorescence: Cells were fixed with 4% paraformaldehyde solution (36% stock, Sigma-Aldrich, 50-00-0, diluted with PBS) and permeabilized with 0.1% Triton X-100 in PBS (PBT 0.1%). Primary antibodies were incubated with the fixed cells over night at 4° C. After, secondary antibodies and phalloidin were incubated for 1 hour at room temperature. For dSTORM imaging, a second 10 minutes fixation was performed at the end of the immunostaining protocol.
Representative images (FIGS. 8A-E) of fibronectin immunostaining (color-coded for intensity) underneath human dermal fibroblast (HDF) cells exposed to the different peptides (8B—SEQ ID NO: 21, 8C—SEQ ID NO: 22; 8D—SEQ ID NO: 19; 8E—SEQ ID NO: 20), seeded on glass without external FN coating and fixed after 1 week (A-E, scale=20 μm) illustrate that inhibitor peptides block fibronectin fibrillogenesis.

Here are results for three compounds from US20250188150A1, “PEPTIDES FOR THE TREATMENT OF FIBROSIS” (Technion Research & Development Foundation Limited, priority 2022, published 2025).

In the case of `N#CCCN` [βAPN, beta-aminopropionitrile], the “effect on LOXL3 oxidation of inhibitor peptides” value on LOXL3 [1] (addition of βAPN to the oxidation assay) is given as “oxidation is inhibited”. For the same compound, the “cell spreading on LOXL3-treated FN” value on LOXL3 [2] (βAPN added following the FN treatment, compared to treated FN without the inhibitor) was “no difference was observed in cell spreading”. The “increases in adhesion sizes and cell areas on LOXL3-treated FN” value at LOXL3 [2] (βAPN added to the FN-LOXL3 mix throughout the reaction, glass, 15 minutes) is “blocked”.
Regarding “DQCQDSETGTFYQIGDSWEKYVHGVRYQCYCYGRGIGEWHCQPL (FN1-9 (control peptide))”, in the experiment with LOXL3 [1], the “oxidation of the peptide by LOXL3” value was “not the control peptides (FN1-3 and FN1-9) undergo oxidation by LOXL3”. Moreover, the “culture confluency (cell proliferation)” value in the experiment with lung fibroblasts is “not with the control peptide (FN1-9) inhibit cell proliferation”.
As for “ETCFDKYTGNTYRVGDTYERPKDSMIWDCTCIGAGRGRISCTIA (FN1-2 (Inhibitor peptide) long version of FN1-2)”, the “oxidation of the peptide by LOXL3” value with LOXL3 [1] is reported as “undergo oxidation by LOXL3”. Also, the cell area entry in the experiment with HDF cells is on record as “significant reduction”. For the same compound, the total fibronectin fibrils result in experiment [3] is “reduction in fibrils”. In addition, in the experiment on lung fibroblasts, the “culture confluency (cell proliferation)” value is recorded as “inhibit cell proliferation”.
